Article PMC4376459, “CXCR3 antagonist VUF10085 binds to an intrahelical site distinct from that of the broad spectrum antagonist TAK-779” (British Journal of Pharmacology, 2015)
Residue numbers refer to the chain shown, from its start.

What was measured:
D112N-CXCR3 = molecular target: T1, D112N-CXCR3 (Homo sapiens, UniProt P49682, D112N); assay: Chemotaxis assay, L1.2 transfectants migrating to CXCL11; assay type: cell-based; settings: 10 nM CXCL11, read-out: IC50 for inhibition of migration
T1 construct: expressed in transfected cells; host or cells: murine pre-B cell line L1.2, transient transfection
T1 sequence (P49682 1-368 D112N): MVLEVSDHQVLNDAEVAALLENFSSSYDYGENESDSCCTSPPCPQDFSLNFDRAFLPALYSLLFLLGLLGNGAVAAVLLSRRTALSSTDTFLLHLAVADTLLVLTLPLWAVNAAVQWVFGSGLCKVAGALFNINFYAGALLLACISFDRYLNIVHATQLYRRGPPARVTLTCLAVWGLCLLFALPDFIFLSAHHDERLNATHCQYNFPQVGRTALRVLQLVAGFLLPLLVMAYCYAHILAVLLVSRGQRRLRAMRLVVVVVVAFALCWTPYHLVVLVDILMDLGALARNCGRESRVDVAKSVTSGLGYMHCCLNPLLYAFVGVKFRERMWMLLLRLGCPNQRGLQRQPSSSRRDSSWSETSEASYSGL

WT CXCR3 = molecular target: T2, WT CXCR3 (Homo sapiens, UniProt P49682); assay: Whole-cell 125I-CXCL11 binding assay, L1.2 transfectants; settings: WT CXCR3 transfectants (Figure 1); read-out: IC50 for displacement of 125I-CXCL11
T2 construct: expressed in transfected cells; host or cells: murine pre-B cell line L1.2, transient transfection by electroporation
T2 sequence (P49682 1-368): T1 sequence (P49682 1-368 D112N) with N112D

CXCR3 Y60A = molecular target: T3, CXCR3 Y60A (Homo sapiens, UniProt P49682, Y60A); assay: as above
T3 construct: expressed in transfected cells; host or cells: murine pre-B cell line L1.2, transient transfection
T3 sequence (P49682 1-368 Y60A): T1 sequence (P49682 1-368 D112N) with Y60A, N112D

CXCR3 F131A = molecular target: T4, CXCR3 F131A (Homo sapiens, UniProt P49682, F131A); assay: as above; settings: 0.1 nM 125I-CXCL11, read-out: IC50 ligand binding (mean ± SEM)
T4 construct: expressed in transfected cells; host or cells: murine pre-B cell line L1.2, transient transfection
T4 sequence (P49682 1-368 F131A): T1 sequence (P49682 1-368 D112N) with N112D, F131A

CXCR3 H202A (ECL2) = molecular target: T5, CXCR3 H202A (ECL2) (Homo sapiens, UniProt P49682, H202A); assay: as above; settings: 0.1 nM 125I-CXCL11, read-out: IC50 ligand binding (mean ± SEM)
T5 construct: expressed in transfected cells; host or cells: murine pre-B cell line L1.2, transient transfection
T5 sequence (P49682 1-368 H202A): T1 sequence (P49682 1-368 D112N) with N112D, H202A

CXCR3 Y308A = molecular target: T6, CXCR3 Y308A (Homo sapiens, UniProt P49682, Y308A); assay: as above
T6 construct: expressed in transfected cells; host or cells: murine pre-B cell line L1.2, transient transfection
T6 sequence (P49682 1-368 Y308A): T1 sequence (P49682 1-368 D112N) with N112D, Y308A

Which IC50 (D112N-CXCR3) does the source give for Cc1ccc(-c2ccc3c(c2)C=C(C(=O)Nc2ccc(C[N+](C)(C)C4CCOCC4)cc2)CCC3)cc1.[Cl-] [TAK-779, N,N-dimethyl-N-[4-[[[2-(4-methylphenyl)-6,7-dihydro-5H-benzocyclohepten-8-yl]-carbonyl]amino]benzyl] tetrahydro-2H-pyran-4-aminium chloride] here?
Its IC50 is 1340 nM.

What about the IC50 (WT CXCR3) of the same compound?
Its IC50 is 15.6 µM.

And the “reduction in IC50 value, ligand binding” value (CXCR3 Y60A; Y60A relative to WT)?
Its value is “twofold”.

What about the IC50 (CXCR3 Y60A; Y60A, 0.1 nM 125I-CXCL11, read-out: IC50 ligand binding (mean ± SEM)) of the same compound?
The IC50 was 14 ± 7.07 µM.

And the IC50 (CXCR3 F131A)?
Its IC50 is 23.3 ± 6.57 µM.

What about the IC50 (CXCR3 H202A (ECL2)) of the same compound?
The IC50 was 25.3 ± 10.2 µM.

And the “reduction in IC50 value, ligand binding” value (CXCR3 Y308A; Y308A relative to WT)?
Its value is “twofold”.

And the IC50 (CXCR3 Y308A; Y308A, 0.1 nM 125I-CXCL11, read-out: IC50 ligand binding (mean ± SEM))?
Its IC50 is 14.2 ± 3 µM.
